Experimental findings from ChEMBL document CHEMBL1152881, “A heterocyclic molecule with significant activity against dengue virus” (Bioorg Med Chem Lett, 2009) are described below.

The nature of data set [1]: (§1) Therapeutic index, ratio of CC50 for african green monkey Vero cells to EC50 for Dengue virus type 2. Type of data set: cell-based. The conditions noted are these: read-out: TI.
For data set [2], the system named is dengue virus type 2. Nature of the data set: Antiviral activity against Dengue virus type 2 New Guinea C infected in african green monkey Vero cells by neutral red uptake assay. Format: functional, organism-based.
Data set [3] concerns dengue virus type 2. Nature of the data set: Antiviral activity against Dengue virus type 2 New Guinea C infected in african green monkey Vero cells assessed as inhibition of virus-induced cytopathic effect by viral yield reduction assay. Type of data set: functional. In general terms: Damage to the host cells serves as the signal in cytopathic effect assays.
Data set [4] can be described thus: Cytotoxicity against african green monkey Vero cells. Type of data set: cell-based. Conditions: chlorocebus sabaeus.
Data set [5] relates to dengue virus type 2. The data set can be described thus: Antiviral activity against Dengue virus type 2 New Guinea C infected in african green monkey Vero cells assessed as inhibition of virus-induced cytopathic effect. Type of data set: functional, organism-based.
A short description of data set [6]: as §1. The conditions noted are these: read-out: TI. Type of data set: cell-based. This is another data set of the same source.
The test system of the next data set is Yellow fever virus. Nature of the data set: Antiviral activity against Yellow fever virus 17D by viral yield reduction assay. Type of data set: functional, organism-based.
A short description of data set [7]: as §1. Type of data set: cell-based. The conditions noted are these: read-out: TI. The source holds these as a separate data set.

Structures are written as SMILES. ≈ marks a conversion by molar mass, not a printed value. Calls of active or inactive are those of the source. No cut-off for these calls is given here.

Take `O=C(O)c1cnc2c(c1O)c(=O)n(Cc1ccccc1)c(=O)n2Cc1ccccc1`: the selectivity ratio is more than 16 in data set [1], more than 26 in data set [6] and more than 18 in data set [7]. Also, the EC50 (usually the concentration needed to bring the measured effect to its halfway point) amounted to 6.3 µg/mL (≈ 15.6 µM) with dengue virus type 2 [2] and 5.7 µg/mL (≈ 14.1 µM) in the data set with dengue virus type 2 [5]. Further, the CC50 (with dengue virus type 2 [3]; in data set [4]) was more than 100 µg/mL throughout. Also, the EC90 (in general, the concentration needed for an effect of 90%) in the data set on dengue virus type 2 [3] came out at 3.8 µg/mL (≈ 9.42 µM). Also, in the data set with Yellow fever virus, the outcome was Active.
